Data published in US6358885B1, “Substituted phenylheterocyclic herbicides” (Mississippi State University, priority 1992, dated 2002).

Legend:
Test in all cases: Test B preemergence/postemergence greenhouse plant response rating 0 to 10
barley = assay type: in vivo, Hordeum vulgare; conditions: for Plant response rating, Barley: 0 to 10 scale
Method in brief: (§1)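 Test chemicals were sprayed onto freshly planted seed and, concurrently, onto young plants between the one and four leaf stage. After a twelve- to sixteen-day greenhouse period, each species was visually compared with untreated controls.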

barnyardgrass = assay type: in vivo, Echinochloa crus-galli; conditions: for Plant response rating, Barnyardgrass: 0 to 10 scale
Method in brief: as §1

bedstraw = assay type: in vivo, Galium aparine; conditions: for Plant response rating, Bedstraw: 0 to 10 scale
Method in brief: as §1

blackgrass = assay type: in vivo, Alopecurus myosuroides; conditions: for Plant response rating, Blackgrass: 0 to 10 scale
Method in brief: as §1

cheatgrass = assay type: in vivo, Bromus secalinus; conditions: for Plant response rating, Cheatgrass: 0 to 10 scale
Method in brief: as §1

chickweed = assay type: in vivo, Stellaria media; conditions: for Plant response rating, Chickweed: 0 to 10 scale
Method in brief: as §1

cocklebur = assay type: in vivo, Xanthium pensylvanicum; conditions: for Plant response rating, Cocklebur: 0 to 10 scale
Method in brief: as §1

corn = assay type: in vivo, Zea mays; conditions: for Plant response rating, Corn: 0 to 10 scale
Method in brief: as §1

cotton = assay type: in vivo, Gossypium hirsutum; conditions: for Plant response rating, Cotton: 0 to 10 scale
Method in brief: as §1

crabgrass = assay type: in vivo, Digitaria spp.; conditions: for Plant response rating, Crabgrass: 0 to 10 scale
Method in brief: as §1

giant foxtail = assay type: in vivo, Setaria faberii; conditions: for Plant response rating, Giant foxtail: 0 to 10 scale
Method in brief: as §1

lambsquarters = assay type: in vivo, Chenopodium album; conditions: for Plant response rating, Lambsquarter: 0 to 10 scale
Method in brief: as §1

morningglory = assay type: in vivo, Ipomoea hederacea; conditions: for Plant response rating, Morningglory: 0 to 10 scale
Method in brief: as §1

rape = assay type: in vivo, Brassica napus; conditions: for Plant response rating, Rape: 0 to 10 scale
Method in brief: as §1

rice = assay type: in vivo, Oryza sativa; conditions: for Plant response rating, Rice: 0 to 10 scale
Method in brief: as §1

sorghum = assay type: in vivo, Sorghum bicolor; conditions: for Plant response rating, Sorghum: 0 to 10 scale
Method in brief: as §1

soybean = assay type: in vivo, Glycine max; conditions: for Plant response rating, Soybean: 0 to 10 scale
Method in brief: as §1

sugar beet = assay type: in vivo, Beta vulgaris; conditions: for Plant response rating, Sugar beet: 0 to 10 scale
Method in brief: as §1

velvetleaf = assay type: in vivo, Abutilon theophrasti; conditions: for Plant response rating, Velvetleaf: 0 to 10 scale
Method in brief: as §1

wheat = assay type: in vivo, Triticum aestivum; conditions: for Plant response rating, Wheat: 0 to 10 scale
Method in brief: as §1

wild buckwheat = assay type: in vivo, Polygonum convolvulus; conditions: for Plant response rating, Wild buckwheat: 0 to 10 scale
Method in brief: as §1

wild oat = assay type: in vivo, Avena fatua; conditions: for Plant response rating, Wild oat: 0 to 10 scale
Method in brief: as §1

purple nutsedge = assay type: in vivo, Cyperus rotundus; conditions: for Plant response rating, Nutsedge: 0 to 10 scale
Method in brief: as §1

In the case of `CC(C)Oc1cc(-c2nn3c(c2Cl)CCCC3)c(Cl)cc1Cl` [Compound 70], the “Plant response rating, Barley” value (barley; POSTEMERGENCE, Rate 50 g/ha) is reported as 3, the “Plant response rating, Barley” value (barley; PREEMERGENCE, Rate 50 g/ha) is reported as 0 and the “Plant response rating (0 to 10 scale), Barley” value (barley; PREEMERGENCE, Rate 200 g/ha) is reported as 0. For the same molecule, the “Plant response rating, Barley” value (barley; Rate 200 g/ha, POSTEMERGENCE) was 4, the “Plant response rating, Barnyardgrass” value (barnyardgrass; POSTEMERGENCE, Rate 50 g/ha) was 6 and the “Plant response rating, Barnyardgrass” value (barnyardgrass; PREEMERGENCE, Rate 50 g/ha) was 0. For the same molecule, the “Plant response rating (0 to 10 scale), Barnyardgrass” value (barnyardgrass; PREEMERGENCE, Rate 200 g/ha) was 0, the “Plant response rating, Barnyardgrass” value (barnyardgrass; Rate 200 g/ha, POSTEMERGENCE) was 7 and the “Plant response rating, Bedstraw” value (bedstraw; POSTEMERGENCE, Rate 50 g/ha) was 8. The “Plant response rating, Bedstraw” value (bedstraw; PREEMERGENCE, Rate 50 g/ha) was 1, the “Plant response rating (0 to 10 scale), Bedstraw” value (bedstraw; PREEMERGENCE, Rate 200 g/ha) was 6 and the “Plant response rating, Bedstraw” value (bedstraw; Rate 200 g/ha, POSTEMERGENCE) was 7. The “Plant response rating, Blackgrass” value (blackgrass; PREEMERGENCE, Rate 50 g/ha) was 0, the “Plant response rating (0 to 10 scale), Blackgrass” value (blackgrass; PREEMERGENCE, Rate 200 g/ha) was 0 and the “Plant response rating, Blackgrass” value (blackgrass; Rate 200 g/ha, POSTEMERGENCE) was 3. The “Plant response rating, Cheatgrass” value (cheatgrass; POSTEMERGENCE, Rate 50 g/ha) was 3, the “Plant response rating, Cheatgrass” value (cheatgrass; PREEMERGENCE, Rate 50 g/ha) was 0 and the “Plant response rating (0 to 10 scale), Cheatgrass” value (cheatgrass; PREEMERGENCE, Rate 200 g/ha) was 2. The “Plant response rating, Cheatgrass” value (cheatgrass; Rate 200 g/ha, POSTEMERGENCE) was 4, the “Plant response rating, Chickweed” value (chickweed; POSTEMERGENCE, Rate 50 g/ha) was 2 and the “Plant response rating, Chickweed” value (chickweed; PREEMERGENCE, Rate 50 g/ha) was 0. For the same molecule, the “Plant response rating (0 to 10 scale), Chickweed” value (chickweed; PREEMERGENCE, Rate 200 g/ha) was 0, the “Plant response rating, Chickweed” value (chickweed; Rate 200 g/ha, POSTEMERGENCE) was 3 and the “Plant response rating, Cocklebur” value (cocklebur; POSTEMERGENCE, Rate 50 g/ha) was 8. For the same molecule, the “Plant response rating, Cocklebur” value (cocklebur; PREEMERGENCE, Rate 50 g/ha) was 0, the “Plant response rating (0 to 10 scale), Cocklebur” value (cocklebur; PREEMERGENCE, Rate 200 g/ha) was 0 and the “Plant response rating, Cocklebur” value (cocklebur; Rate 200 g/ha, POSTEMERGENCE) was 8. For the same molecule, the “Plant response rating, Corn” value (corn; POSTEMERGENCE, Rate 50 g/ha) was 4, the “Plant response rating, Corn” value (corn; PREEMERGENCE, Rate 50 g/ha) was 0 and the “Plant response rating (0 to 10 scale), Corn” value (corn; PREEMERGENCE, Rate 200 g/ha) was 0. For the same molecule, the “Plant response rating, Corn” value (corn; Rate 200 g/ha, POSTEMERGENCE) was 4, the “Plant response rating, Cotton” value (cotton; POSTEMERGENCE, Rate 50 g/ha) was 10 and the “Plant response rating, Cotton” value (cotton; PREEMERGENCE, Rate 50 g/ha) was 0. The “Plant response rating (0 to 10 scale), Cotton” value (cotton; PREEMERGENCE, Rate 200 g/ha) was 0, the “Plant response rating, Cotton” value (cotton; Rate 200 g/ha, POSTEMERGENCE) was 10 and the “Plant response rating, Crabgrass” value (crabgrass; POSTEMERGENCE, Rate 50 g/ha) was 3. For the same molecule, the “Plant response rating, Crabgrass” value (crabgrass; PREEMERGENCE, Rate 50 g/ha) was 0, the “Plant response rating (0 to 10 scale), Crabgrass” value (crabgrass; PREEMERGENCE, Rate 200 g/ha) was 2 and the “Plant response rating, Crabgrass” value (crabgrass; Rate 200 g/ha, POSTEMERGENCE) was 6. For the same molecule, the “Plant response rating, Giant foxtail” value (giant foxtail; POSTEMERGENCE, Rate 50 g/ha) was 5, the “Plant response rating, Giant foxtail” value (giant foxtail; PREEMERGENCE, Rate 50 g/ha) was 0 and the “Plant response rating (0 to 10 scale), Giant foxtail” value (giant foxtail; PREEMERGENCE, Rate 200 g/ha) was 4. For the same molecule, the “Plant response rating, Giant foxtail” value (giant foxtail; Rate 200 g/ha, POSTEMERGENCE) was 5, the “Plant response rating, Lambsquarter” value (lambsquarters; POSTEMERGENCE, Rate 50 g/ha) was 9 and the “Plant response rating, Lambsquarter” value (lambsquarters; PREEMERGENCE, Rate 50 g/ha) was 7. For the same molecule, the “Plant response rating (0 to 10 scale), Lambsquarter” value (lambsquarters; PREEMERGENCE, Rate 200 g/ha) was 10, the “Plant response rating, Lambsquarter” value (lambsquarters; Rate 200 g/ha, POSTEMERGENCE) was 10 and the “Plant response rating, Morningglory” value (morningglory; POSTEMERGENCE, Rate 50 g/ha) was 7. For the same molecule, the “Plant response rating, Morningglory” value (morningglory; PREEMERGENCE, Rate 50 g/ha) was 0, the “Plant response rating (0 to 10 scale), Morningglory” value (morningglory; PREEMERGENCE, Rate 200 g/ha) was 0 and the “Plant response rating, Morningglory” value (morningglory; Rate 200 g/ha, POSTEMERGENCE) was 8. For the same molecule, the “Plant response rating, Rape” value (rape; POSTEMERGENCE, Rate 50 g/ha) was 7, the “Plant response rating, Rape” value (rape; PREEMERGENCE, Rate 50 g/ha) was 2 and the “Plant response rating (0 to 10 scale), Rape” value (rape; PREEMERGENCE, Rate 200 g/ha) was 3. The “Plant response rating, Rape” value (rape; Rate 200 g/ha, POSTEMERGENCE) was 9, the “Plant response rating, Rice” value (rice; POSTEMERGENCE, Rate 50 g/ha) was 5 and the “Plant response rating, Rice” value (rice; PREEMERGENCE, Rate 50 g/ha) was 0. For the same molecule, the “Plant response rating (0 to 10 scale), Rice” value (rice; PREEMERGENCE, Rate 200 g/ha) was 0, the “Plant response rating, Rice” value (rice; Rate 200 g/ha, POSTEMERGENCE) was 5 and the “Plant response rating, Sorghum” value (sorghum; POSTEMERGENCE, Rate 50 g/ha) was 5. The “Plant response rating, Sorghum” value (sorghum; PREEMERGENCE, Rate 50 g/ha) was 0, the “Plant response rating (0 to 10 scale), Sorghum” value (sorghum; PREEMERGENCE, Rate 200 g/ha) was 0 and the “Plant response rating, Sorghum” value (sorghum; Rate 200 g/ha, POSTEMERGENCE) was 6. For the same molecule, the “Plant response rating, Soybean” value (soybean; POSTEMERGENCE, Rate 50 g/ha) was 5, the “Plant response rating, Soybean” value (soybean; PREEMERGENCE, Rate 50 g/ha) was 0 and the “Plant response rating (0 to 10 scale), Soybean” value (soybean; PREEMERGENCE, Rate 200 g/ha) was 0. For the same molecule, the “Plant response rating, Soybean” value (soybean; Rate 200 g/ha, POSTEMERGENCE) was 6, the “Plant response rating, Sugar beet” value (sugar beet; POSTEMERGENCE, Rate 50 g/ha) was 10 and the “Plant response rating, Sugar beet” value (sugar beet; PREEMERGENCE, Rate 50 g/ha) was 6. For the same molecule, the “Plant response rating (0 to 10 scale), Sugar beet” value (sugar beet; PREEMERGENCE, Rate 200 g/ha) was 10, the “Plant response rating, Sugar beet” value (sugar beet; Rate 200 g/ha, POSTEMERGENCE) was 10 and the “Plant response rating, Velvetleaf” value (velvetleaf; POSTEMERGENCE, Rate 50 g/ha) was 10. The “Plant response rating, Velvetleaf” value (velvetleaf; PREEMERGENCE, Rate 50 g/ha) was 0, the “Plant response rating (0 to 10 scale), Velvetleaf” value (velvetleaf; PREEMERGENCE, Rate 200 g/ha) was 5 and the “Plant response rating, Velvetleaf” value (velvetleaf; Rate 200 g/ha, POSTEMERGENCE) was 10. The “Plant response rating, Wheat” value (wheat; POSTEMERGENCE, Rate 50 g/ha) was 4, the “Plant response rating, Wheat” value (wheat; PREEMERGENCE, Rate 50 g/ha) was 2 and the “Plant response rating (0 to 10 scale), Wheat” value (wheat; PREEMERGENCE, Rate 200 g/ha) was 3. The “Plant response rating, Wheat” value (wheat; Rate 200 g/ha, POSTEMERGENCE) was 5, the “Plant response rating, Wild buckwheat” value (wild buckwheat; POSTEMERGENCE, Rate 50 g/ha) was 10 and the “Plant response rating, Wild buckwheat” value (wild buckwheat; PREEMERGENCE, Rate 50 g/ha) was 8. For the same molecule, the “Plant response rating (0 to 10 scale), Wild buckwheat” value (wild buckwheat; PREEMERGENCE, Rate 200 g/ha) was 8, the “Plant response rating, Wild buckwheat” value (wild buckwheat; Rate 200 g/ha, POSTEMERGENCE) was 10 and the “Plant response rating, Wild oat” value (wild oat; POSTEMERGENCE, Rate 50 g/ha) was 2. For the same molecule, the “Plant response rating, Wild oat” value (wild oat; PREEMERGENCE, Rate 50 g/ha) was 2, the “Plant response rating (0 to 10 scale), Wild oat” value (wild oat; PREEMERGENCE, Rate 200 g/ha) was 3 and the “Plant response rating, Wild oat” value (wild oat; Rate 200 g/ha, POSTEMERGENCE) was 3. For the same molecule, the “Plant response rating, Nutsedge” value (purple nutsedge; POSTEMERGENCE, Rate 50 g/ha) was 1, the “Plant response rating, Nutsedge” value (purple nutsedge; PREEMERGENCE, Rate 50 g/ha) was 0 and the “Plant response rating (0 to 10 scale), Nutsedge” value (purple nutsedge; PREEMERGENCE, Rate 200 g/ha) was 0. The “Plant response rating, Nutsedge” value (purple nutsedge; Rate 200 g/ha, POSTEMERGENCE) was 5.
